Data on 2 compounds can be found in US7897834B2, “Mutation in the rat adenomatous polyposis coli gene within the human mutation hotspot region” (Wisconsin Alumni Research Foundation, priority 2005, dated 2011).

Data set [1] concerns intestinal tumors in F344 Pirc rats. Kind of data set: Effect of celecoxib on intestinal tumor multiplicity in F344 Pirc rats (screening for carcinogenesis inhibitory activity). The format is in vivo, rat. The note with it: for Average number of tumors in large intestine / Average number of tumors in small intestine / Average total number of tumors: celecoxib 1200 ppm diet from about 40 days of age, necropsy at about 22 weeks, n=9. Here is the method:
Shown in Table 5 is an example of the use of a Pirc rat for screening a compound for carcinogenesis inhibitory activity. The effect of celecoxib on intestinal tumor multiplicity in F344 Pirc rats was tested. At about 40 days of age, Pirc rats backcrossed with F344-Tac and F334 control rats were fed celecoxib at 1200 ppm diet. The rats were killed at about 22 weeks of age (about 150-160 days of age). Necropsy was performed to identify 1-2 mm tumors in the intestines.

The subject of data set [2] is intestinal tumors in F344-Pirc rats. The experiment in a line: Tumor multiplicities in F344-Pirc rats after somatic ENU treatment. The format is in vivo, rat. The note with it: ENU treated, male, age 7 mo. How it is done: Somatic ENU treatment. ENU was dissolved in 95% EtOH and measured with a spectrophotometer at […] to obtain a final concentration of 1 mg/ml. Either the ENU solution or 95% EtOH was injected intraperitoneally into 13-20 day old rats at 18 or 40 mg/kg of body mass. Treated animals were isolated in a laminar flow hood for at least three days before being returned to normal housing.
Tumor multiplicities were determined for both adenomas and microadenomas (neoplasms less than 0.5 mm in diameter). A significant dependence on gender was observed, with males developing more of both types of tumor in all regions of the intestinal tract. There was also a monotonic increase in tumor multiplicity with age, reaching an average of 14 colonic adenomas in males and 9 in females over eight months of age (Tables 3 and 4).
Shown in Table 3 are the tumor multiplicities in Pirc rats. Colonic microadenoma multiplicities could not be accurately measured without histopathological confirmation and were excluded from these analyses. Neoplasms less than 0.5 mm in size were classified as microadenomas.

[3] abbreviates: Female Pirc rat, celecoxib 1200 ppm diet vs control diet.
Setting [4] is: Male Pirc rat, celecoxib 1200 ppm diet vs control diet.
[5] abbreviates: N=3, ENU intraperitoneally at 18 or 40 mg/kg in 13-20 day old rats.

With `Cc1ccc(-c2cc(C(F)(F)F)nn2-c2ccc(S(N)(=O)=O)cc2)cc1` [Celecoxib, celecoxib], in data set [1] (Female Pirc rat), the “Average number of tumors in large intestine” value was determined as 0.1, the “Average number of tumors in small intestine” value is reported as 0.9 and the “Average total number of tumors” value worked out at 1.0. Besides, in data set [1] (setting [3]), the “Relative reduction in number of tumors (large intestine)” value was determined as 93% and the “Relative reduction in number of tumors (total)” value is 50%. For the same compound, in data set [1] (Male Pirc rat), the “Average number of tumors in large intestine” value was found to be 1.2, the “Average number of tumors in small intestine” value is given as 1.3 and the “Average total number of tumors” value came out at 2.6. Besides, in data set [1] (setting [4]), the “Relative reduction in number of tumors (large intestine)” value is on record as 61%, the “Relative reduction in number of tumors (small intestine)” value was found to be 82% and the “Relative reduction in number of tumors (total)” value stood at 76%.

On to `CCN(N=O)C(N)=O` [ENU, N-ethyl-N-nitrosourea], for which, in data set [2] (setting [5]), the “Colonic polyps, mean ± SD” value is given as 79 ± 11 and the “Lesions in small intestine, mean ± SD: Adenomas” value stood at 57 ± 13. Also, the “Lesions in small intestine, mean ± SD: Microadenomas” value in data set [2] (N=3, neoplasms less than 0.5 mm) came out at 665 ± 103.
